One may read the AC50 as the concentration giving half of the maximal activity seen.

Results filed as inconclusive are left out. The source made the active and inactive calls.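 The calls were made as follows: active = compounds lowering the luciferase signal with a fitted half-maximal dose at most twice their top valid dose (cut at about 30 µM in these data); inconclusive = flat fits with moderate signal loss, or poor fits; inactive = the rest.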

This experiment relates to Clone20 osteoblast Shn3 3'UTR firefly luciferase, 24 h. The experiment in a line: Schnurri-3 3'UTR-luciferase signal suppressors – cell-based, Clone20 osteoblasts, luminescence, dry powder, set 2, dose response (AID 743417).
`Cc1ccc(S(=O)(=O)N2CCN(c3ncnc4sccc34)CC2)cc1C`: the AC50 was 3.53 µM.

`CC(CCCC(C)(C)O)NC(=O)c1cc(COc2ccc3ncccc3c2)on1` (stereo not given): the concentration at half-maximal activity (AC50) was 1.75 µM.

Turning to `CCN1CCN(Cc2ccc(NC(=O)c3ccc(C)c(NC(=O)c4cncc(-c5cccs5)c4)c3)cc2C(F)(F)F)CC1`, the concentration at half-maximal activity (AC50) was 0.808 µM.

On to `CCN1CCN(Cc2ccc(NC(=O)c3ccc(C)c(/C=C/c4cnc(Nc5cc(N6CCNCC6)nc(C)n5)cn4)c3)cc2C(F)(F)F)CC1`, for which the AC50 was 9.56 µM.

Take `Cc1cc(C)nc(S/C=C/C(=O)c2ccccc2)n1`: the AC50 was 1.72 µM.

Consider `CCS(=O)(=O)c1ncc(Cl)c(C(=O)Nc2ccc(S(=O)(=O)N(C)c3ccccc3)cc2)n1`, for which the AC50 is 0.308 µM.

Regarding `CS(=O)(=O)c1nc(-c2ccc(Br)cc2)cc(-c2ccccc2)c1C#N`, the AC50 was 4.72 µM.

In the case of `CCS(=O)(=O)c1ncc(Cl)c(C(=O)Nc2ccc(S(=O)(=O)N3CCCC(C)C3)cc2)n1` (stereo not given), the AC50 was less than 0.26 µM.

`Cc1ccc(C(=O)/C=C/c2ccc(-c3ccc(C)cc3)o2)cc1`: the AC50 is 2.79 µM.

Turning to `O=C(Nc1ccc(-c2nc3ncccc3o2)cc1)c1ccc([N+](=O)[O-])o1`, the concentration at half-maximal activity (AC50) is 1.34 µM.

For the compound `CCn1c(N2CCN(S(=O)(=O)c3ccc(Cl)cc3)CC2)nc2ccccc21`, the AC50 was 9.14 µM.

As to `Cc1cc(C(=O)NNS(=O)(=O)c2cc(C(=O)O)ccc2Cl)c(C)n1-c1ccccc1`, the AC50 was 25.7 µM.

Consider `O=C(CC(O)(C(F)(F)F)C(F)(F)F)Nc1ccc(Cl)c(Cl)c1`, for which the concentration at half-maximal activity (AC50) is 4.97 µM.

On to `CC(CNC(=O)c1cc(COc2ccc3ncccc3c2)on1)c1ccccc1` (stereo not given), for which the AC50 is 3.73 µM.

Take `CCC(=O)OCCNc1cc(Sc2nc3ccccc3[nH]2)c2nonc2c1[N+](=O)[O-]`: the AC50 was 1.09 µM.

As for `COCCn1c(C)cc(C2=NNC(=NC3CC3)SC2)c1C`, the AC50 was less than 0.26 µM.

For `CCN(CC)S(=O)(=O)c1ccc(C)c(NC(=S)N2CCN(C/C=C/c3ccccc3)CC2)c1`, the AC50 is 2.55 µM.

In the case of `CC1Sc2ccc(S(=O)(=O)N3CCC(C(=O)Nc4ccc(Cl)cc4)CC3)cc2NC1=O` (stereo not given), the AC50 is 2.42 µM.

Consider `C#CCN(C[C@@H]1[C@@H](OC(=O)NCC2CCCCC2)[C@@H](OC(=O)NCC2CCCCC2)Cn2c(=O)ccc(=O)n21)S(=O)(=O)c1ccc(C)cc1`, for which the AC50 is 2.49 µM.

Consider `O=C1C=CC(O)(c2cc(=O)c3c(O)cc(O)cc3o2)C=C1`, for which the AC50 is 5.12 µM.

Regarding `Cc1ccc(-c2nc3cccnc3o2)cc1NC(=O)COc1ccc(C(C)(C)C)cc1`, the AC50 was 10.8 µM.

With `COCOCCn1cc(CN2CCS(=O)(=O)N(Cc3ccc(-c4ccc(Cl)c(Cl)c4)cc3)C(C(C)C)C2=O)nn1` (stereo not given), the AC50 is 1.35 µM.

On to `Cc1cc(CN2CCOCC2)c(O)c(C2(C)CCCCC2)c1`, for which the AC50 was 32.3 µM.

Consider `Cc1oc(-c2ccc(Cl)cc2)nc1CS(=O)CC(=O)NCCCN1CCN(Cc2ccccc2)CC1` (stereo not given), for which the half-maximal activity concentration (AC50) is 2.52 µM.

For `CC1=C(CO)C(=O)OC([C@@H](C)C2CC[C@H]3C4C[C@H]5O[C@]56[C@@H](O)C=CC(=O)[C@]6(C)C4CC[C@]23C)C1` (stereo not given in full), the AC50 was 0.674 µM.

For the compound `COc1ccc(C(=O)NCCN(C)C)c2nc3ccccc3cc12`, the AC50 is 5.78 µM.

`CCCCN1CC(COCc2ccccc2)Oc2cccc(Oc3cc(C)c(C)c(C)c3)c2S1(=O)=O` (stereo not given): the AC50 was 9.16 µM.

Regarding `Cc1ccc(NC(=O)C2CCN(S(=O)(=O)c3ccc(N4CCCC4=O)cc3)CC2)cc1Cl`, the AC50 was 0.549 µM.

In the case of `OCCCNc1cc(-c2ccnc(Nc3cccc(Cl)c3)n2)ccn1`, the AC50 was less than 0.26 µM.

As for `C#CC(=O)N(c1ccc(OC)c(OC)c1)C(C(=O)NC1CCCC1)c1cccs1` (stereo not given), the AC50 was 3.32 µM.

For `O=C(c1cccc(S(=O)(=O)N2CCN(c3ccccc3)CC2)c1)N1CCCC(C(F)(F)F)C1` (stereo not given), the AC50 was 2.68 µM.

As to `O=C(Nc1ccc(N2CCOCC2)cc1)c1ccc(Cl)c(S(=O)(=O)N2CCCC2)c1`, the AC50 is 2.17 µM.

Consider `CCOC(=O)c1cnc(-n2nc(C)cc2C)nc1NNc1cc(C)nc(-c2ccccc2)n1`, for which the AC50 is 3.31 µM.

In the case of `CCc1ccc(NC(=O)c2nc(S(=O)(=O)Cc3ccccc3)ncc2Cl)cc1`, the AC50 is 0.551 µM.

For `Fc1ccc(NC(=S)N2CCCN(c3ccc(C(F)(F)F)cn3)CC2)c(F)c1`, the half-maximal activity concentration (AC50) was 3.71 µM.

`COc1ccc(Nc2nc(N3CCCC3)c3ccccc3n2)cc1`: the AC50 is 3.67 µM.

With `CC(Oc1ccc(F)cc1)C(=O)N(CCC1=CCCCC1)c1c(N)n(Cc2ccccc2)c(=O)[nH]c1=O` (stereo not given), the AC50 is 7.99 µM.

On to `O=C1NCCOC(=O)[C@@H](Cc2ccc(F)cc2)CC/C=C/C[C@@H]1CC(=O)N(CCO)Cc1ccccc1`, for which the AC50 is > 70 µM (inactive).

With `COc1ccc(CC(=O)Nc2ccncc2Cl)cc1`, the AC50 was 2.12 µM.

Take `COc1ccc(CN2CCC(C(=O)Nc3ccc(Oc4cccnc4)cc3)CC2)c(C)c1C`: the AC50 is 3.68 µM.

`CC(C)(C)C(=O)N1CCN(c2ccc(NC(=O)c3ccc([N+](=O)[O-])o3)cc2)CC1`: the AC50 was 2.45 µM.

For `Cc1ccc(-c2nc3ncccc3o2)cc1NC(=O)c1sc2ccccc2c1Cl`, the AC50 is 5.87 µM.

With `C=C(C)[C@@H]1C2=CC(C(=O)OC)=C(C[C@H](C(=C)C)[C@H]3O[C@H]3C3=C[C@H]1OC3=O)O2`, the AC50 is 8.16 µM.

For `CCOC(=O)N1CCN(c2ccc(S(=O)(=O)N(Cc3ccccc3)Cc3ccccc3)cn2)CC1`, the AC50 was 2.59 µM.

With `Cc1ccccc1CN1CC2=C(CCN(Cc3ccccc3)C2=O)N2CCN=C12`, the AC50 is 2.41 µM.

For `O=c1[nH]c(Nc2nc3ccccc3o2)nc2c1CCCC2`, the AC50 is 7.71 µM.

With `O=C(c1ccccc1)C(CN1CCCCC1)c1ccccc1` (stereo not given), the AC50 is 2.41 µM.

On to `O=C(Nc1ccncc1)c1ccc(Cl)c(S(=O)(=O)N2CCc3ccccc32)c1`, for which the AC50 was 3.19 µM.

For `CCCCC(=O)NC(c1ccc(Cl)cc1Cl)c1ccc2cccnc2c1O` (stereo not given), the half-maximal activity concentration (AC50) is 0.67 µM.

Consider `Cn1c(COc2ccc(Br)cc2)nnc1SC1CCc2ccccc2C1=O` (stereo not given), for which the AC50 is 35.2 µM.

`Nc1nc(N)c2cc(Sc3cccc(C(F)(F)F)c3)ccc2n1`: the AC50 was 4.87 µM.

In the case of `Oc1cc(Nc2ccccc2)cc2cccnc12`, the AC50 is 1.79 µM.

As to `O=[N+]([O-])c1cc2c(c(CSc3nnc(Nc4ccccc4)s3)c1)OCOC2`, the AC50 is 3.62 µM.

For the compound `CCN(CC)C(=O)[C@H]1C[C@H](CC(=O)NC/C=C(\C)CCC=C(C)C)C(=O)N2CCc3c([nH]c4cc(CCC(=O)N(C)C)ccc34)[C@]12C`, the concentration at half-maximal activity (AC50) was 1.37 µM.

For the compound `CCOC(=O)N1CCN(S(=O)(=O)c2ccc(C(=O)Nc3nc4ccc(F)cc4s3)cc2)CC1`, the half-maximal activity concentration (AC50) was 4.79 µM.

In the case of `Oc1c(Cl)cc(CN2CCOCC2)c2cccnc12`, the AC50 was 2.43 µM.

As for `CC(C)c1nnc(NC(=O)c2nc(S(=O)(=O)Cc3ccccc3)ncc2Cl)s1`, the AC50 was 0.876 µM.

On to `CC(C)C(=O)NC(c1ccco1)c1ccc2cccnc2c1O` (stereo not given), for which the AC50 was 2.05 µM.

On to `N#Cc1ccc(NC(=O)Nc2ccc(Oc3ccc(NC(=O)Nc4ccc(C#N)cc4)cc3)cc2)cc1`, for which the AC50 was 2.68 µM.

Turning to `O=C(Nc1nc(-c2ccccn2)cs1)c1ccc(Br)s1`, the AC50 is 1 µM.

For `CS(=O)(=O)c1ncc(Cl)c(C(=O)Nc2ccc(OC(F)F)cc2)n1`, the AC50 was 0.682 µM.

Consider `COc1cc(NS(C)(=O)=O)ccc1Nc1c2ccccc2nc2ccccc12`, for which the AC50 is 1.32 µM.

In the case of `Cc1cccc(NC(=O)/C=C/c2ccc([N+](=O)[O-])s2)c1`, the AC50 is 3.29 µM.

For the compound `Nc1nonc1C(=O)NCCNCc1cc(Br)ccc1OCc1ccc(F)cc1`, the concentration at half-maximal activity (AC50) is 3.74 µM.

For `CCCCCCCCOC(=O)c1cc([N+](=O)[O-])c(Sc2ncnc3nc[nH]c23)c([N+](=O)[O-])c1`, the AC50 was 2.81 µM.

As to `CSc1nnc(NC(=O)c2nc(S(=O)(=O)Cc3ccccc3F)ncc2Cl)s1`, the AC50 is 1.55 µM.

Turning to `CCOc1ccccc1Nc1cc(C)nc2ccccc12`, the AC50 was 8.14 µM.

In the case of `C=C1C(=O)O[C@H]2[C@H]1[C@H](OC(=O)CC(=O)O[C@@H]1C[C@@H](C)[C@@H]3C=CC(=O)[C@@]3(C)[C@H]3OC(=O)C(=C)[C@H]13)C[C@@H](C)[C@H]1C=CC(=O)[C@]12C`, the concentration at half-maximal activity (AC50) was 1.54 µM.

Consider `CCOC(=O)c1cccc(NC2c3ccccc3C(=O)N2Cc2ccco2)c1` (stereo not given), for which the AC50 was 4.26 µM.

Regarding `CC1=NNC(=O)/C1=C\c1cn(-c2ccccc2)nc1-c1ccccc1`, the concentration at half-maximal activity (AC50) is 8.42 µM.

Turning to `COc1ccc(NC(=O)CSc2ncccc2C(=O)OC(C)C)cc1OC`, the half-maximal activity concentration (AC50) was 4.1 µM.

Regarding `O=C(c1cc(COc2cccc3cnccc23)on1)N1CCCC(CCCO)C1` (stereo not given), the AC50 was 0.519 µM.

Take `O=C1CC(Sc2nnc(-c3ccccc3O)o2)C(=O)N1c1ccccc1` (stereo not given): the AC50 was 12.9 µM.

For the compound `O=C(c1ccccc1)N1CCN(c2ncnc3sc4c(c23)CCC4)CC1`, the AC50 is 4.14 µM.

In the case of `COc1cccc(N2CCN(c3ncnc4c3cnn4-c3ccc(C)cc3C)CC2)c1`, the AC50 was 4.65 µM.

On to `O=C1CC(c2ccccc2)CC(O)=C1C=Nc1cccc(Cl)c1` (stereo not given), for which the half-maximal activity concentration (AC50) is 4.94 µM.

With `Cn1nc(C(C)(C)C)cc1C(=O)NCc1ccc2c(c1)OCO2`, the AC50 was 1.17 µM.

Take `Cc1ccc(S(=O)(=O)c2ccc([N+](=O)[O-])cn2)cc1`: the AC50 is 3.85 µM.

`CSc1nnc(NC(=O)c2nc(S(=O)(=O)Cc3ccc(C)cc3)ncc2Cl)s1`: the AC50 is 3.18 µM.

As for `COc1ccccc1Cc1c(-c2ccco2)nc2c(C)cc(Br)cn12`, the AC50 is 1.9 µM.

As to `O=C(c1ccc(Br)cc1)C(CN1CCOCC1)c1ccccc1` (stereo not given), the AC50 was 9.4 µM.

As for `COc1ccccc1CNc1nc(NCc2ccccc2OC)c2sccc2n1`, the AC50 is 6.33 µM.

With `CC(=O)OCCCNc1cc(Sc2ccc(Cl)cc2)c2nonc2c1[N+](=O)[O-]`, the AC50 was 1.14 µM.

Regarding `Cc1ccc(Cn2ccc(NC(=O)c3nn(C)cc3[N+](=O)[O-])n2)cc1`, the AC50 is 4.09 µM.

On to `NC1=NC[C@@H](CC2CCCCC2)N1CCc1cc(C(F)(F)F)cc(C(F)(F)F)c1`, for which the AC50 is 9.92 µM.

Regarding `O=C(Nc1cccc(Cl)c1Cl)C1CC(=O)N(c2ccc(Br)cc2)C1` (stereo not given), the AC50 was 8.23 µM.

With `COc1ccc(CCNc2c(C)c(C)nc3ncnn23)cc1`, the AC50 is 0.565 µM.

As to `C=CCOc1nc2c(c(=O)n(C)c(=O)n2C)n1Cc1ccc(Cl)cc1Cl`, the half-maximal activity concentration (AC50) was 2.15 µM.

Take `C#CC(=O)N(c1ccc(OC)cc1OC)C(C(=O)NC1CCCC1)c1cccs1` (stereo not given): the AC50 is 7.12 µM.

For `C[n+]1c2n(c3ccccc31)N=C(c1cc(C(C)(C)C)c(O)c(C(C)(C)C)c1)CS2`, the AC50 was 5.92 µM.
